This is an account of results in article PMC6321601 (Molecules, 2018).

In experiment [1] the test system is L-O2 human normal liver cells. Briefly: MTT assay, toxicity against L-O2 normal cells. The experiment is classed as cell-based. Particulars: Homo sapiens, 72 h incubation, mean of three independent experiments. The protocol: (§1) HepG-2 human hepatocellular carcinoma cells and L-O2 human normal liver cells were maintained in DMEM culture medium supplemented with 10% FBS at 37 °C under a humidified atmosphere with 5% CO2.
(§2) HepG-2 and L-O2 cells in logarithmic growth phase were seeded into a 96-well plate at 5 × 10^3/well/200 µL. After 12 h, compounds at different concentrations were added and incubated for 72 h at 37 °C, 5% CO2. Then, 20 µL MTT (5 mg/mL) was added into each well and incubated for 4 h. The supernatant was discarded, and the precipitate was dissolved with DMSO. The absorbance of the optical density (OD) at 570 nm was detected using a microplate reader and the IC50 was calculated with GraphPad Prism 5.

Experiment [2] deals with HepG-2 human hepatocellular carcinoma cells. Briefly: MTT assay, proliferation of HepG-2 cells. Conditions: Homo sapiens, HepG2, 72 h incubation, mean of three independent experiments. The experiment is classed as cell-based. The protocol:
as §1, §2

Regarding `CC(=O)OC(C)(C)/C=C/C(=O)[C@](C)(O)C1[C@H](OC(=O)CCC(=O)OCc2ccc(COc3no[n+]([O-])c3S(=O)(=O)c3ccccc3)cc2)C[C@@]2(C)C3CC=C4C(CC(O)C(=O)C4(C)C)[C@]3(C)C(=O)C[C@]12C` (stereo partly drawn) [Compound 10o, 4-((4-(((4-(((9R,13R,14S,16R)-17-((R,E)-6-Acetoxy-2-hydroxy-6-methyl-3-oxohept-4-en-2-yl)-2-hydroxy-4,4,9,13,14-pentamethyl-3,11-dioxo-2,3,4,7,8,9,10,11,12,13,14,15,16,17-tetradecahydro-1H-cyclopenta[a]phenanthren-16-yl)oxy)-4-oxobutanoyl)oxy)methyl)benzyl)oxy)-3-(phenylsulfonyl)-1,2,5-oxadiazole 2-oxide], the results for the IC50 in experiment [1] and in experiment [2] were 3000 ± 260 nM and 1020 ± 280 nM, respectively.

As to `CC(=O)OC(C)(C)/C=C/C(=O)[C@](C)(O)C1[C@H](OC(=O)CCC(=O)OCCCCCCCCCCCOc2no[n+]([O-])c2S(=O)(=O)c2ccccc2)C[C@@]2(C)C3CC=C4C(CC(O)C(=O)C4(C)C)[C@]3(C)C(=O)C[C@]12C` (stereo partly drawn) [Compound 10j, 4-((11-((4-(((9R,13R,14S,16R)-17-((R,E)-6-Acetoxy-2-hydroxy-6-methyl-3-oxohept-4-en-2-yl)-2-hydroxy-4,4,9,13,14-pentamethyl-3,11-dioxo-2,3,4,7,8,9,10,11,12,13,14,15,16,17-tetradecahydro-1H-cyclopenta[a]phenanthren-16-yl)oxy)-4-oxobutanoyl)oxy)undecyl)oxy)-3-(phenylsulfonyl)-1,2,5-oxadiazole 2-oxide], the values for the IC50 in experiment [1] and in experiment [2] were 6690 ± 3950 nM and 10300 ± 1110 nM, respectively.

For `CC(=O)OC(C)(C)/C=C/C(=O)[C@](C)(O)C1[C@H](OC(=O)CCC(=O)OCCCCCOc2no[n+]([O-])c2S(=O)(=O)c2ccccc2)C[C@@]2(C)C3CC=C4C(CC(O)C(=O)C4(C)C)[C@]3(C)C(=O)C[C@]12C` (stereo partly drawn) [Compound 10d, 4-((5-((4-(((9R,13R,14S,16R)-17-((R,E)-6-Acetoxy-2-hydroxy-6-methyl-3-oxohept-4-en-2-yl)-2-hydroxy-4,4,9,13,14-pentamethyl-3,11-dioxo-2,3,4,7,8,9,10,11,12,13,14,15,16,17-tetradecahydro-1H-cyclopenta[a]phenanthren-16-yl)oxy)-4-oxobutanoyl)oxy)pentyl)oxy)-3-(phenylsulfonyl)-1,2,5-oxadiazole 2-oxide], the IC50 (commonly the concentration that inhibits the measured activity by half) was determined as 2620 ± 520 nM in experiment [1] and 640 ± 260 nM in experiment [2].

Take `CC(=O)OC(C)(C)/C=C/C(=O)[C@](C)(O)C1[C@H](OC(=O)c2ccc([N+](=O)[O-])cc2)C[C@@]2(C)C3CC=C4C(C[C@H](O)C(=O)C4(C)C)[C@]3(C)C(=O)C[C@]12C` (stereo partly drawn) [Compound 3m, (2S,9R,13R,14S,16R)-17-((R,E)-6-Acetoxy-2-hydroxy-6-methyl-3-oxohept-4-en-2-yl)-2-hydroxy-4,4,9,13,14-pentamethyl-3,11-dioxo-2,3,4,7,8,9,10,11,12,13,14,15,16,17-tetradecahydro-1H-cyclopenta[a]phenanthren-16-yl 4-nitrobenzoate]: the 50% inhibitory concentration (IC50) in experiment [1] worked out at 740 ± 150 nM; in experiment [2] it was 920 ± 440 nM.

With `CCC(=O)O[C@@H]1C[C@@]2(C)C3CC=C4C(C[C@H](O)C(=O)C4(C)C)[C@]3(C)C(=O)C[C@]2(C)C1[C@@](C)(O)C(=O)/C=C/C(C)(C)OC(C)=O` (stereo partly drawn) [Compound 3a, (2S,9R,13R,14S,16R)-17-((R,E)-6-Acetoxy-2-hydroxy-6-methyl-3-oxohept-4-en-2-yl)-2-hydroxy-4,4,9,13,14-pentamethyl-3,11-dioxo-2,3,4,7,8,9,10,11,12,13,14,15,16,17-tetradecahydro-1H-cyclopenta[a]phenanthren-16-yl propionate], the IC50 was 1020 ± 580 nM in experiment [1] and 1010 ± 40 nM in experiment [2].

As to `CC(=O)OC(C)(C)/C=C/C(=O)[C@](C)(O)C1[C@H](OC(=O)CCC(=O)OCCCCCCCCCCOc2no[n+]([O-])c2S(=O)(=O)c2ccccc2)C[C@@]2(C)C3CC=C4C(CC(O)C(=O)C4(C)C)[C@]3(C)C(=O)C[C@]12C` (stereo partly drawn) [Compound 10i, 4-((10-((4-(((9R,13R,14S,16R)-17-((R,E)-6-Acetoxy-2-hydroxy-6-methyl-3-oxohept-4-en-2-yl)-2-hydroxy-4,4,9,13,14-pentamethyl-3,11-dioxo-2,3,4,7,8,9,10,11,12,13,14,15,16,17-tetradecahydro-1H-cyclopenta[a]phenanthren-16-yl)oxy)-4-oxobutanoyl)oxy)decyl)oxy)-3-(phenylsulfonyl)-1,2,5-oxadiazole 2-oxide], the IC50 came out at 3270 ± 430 nM in experiment [1] and 6920 ± 750 nM in experiment [2].

On to `CC(=O)OC(C)(C)/C=C/C(=O)[C@](C)(O)C1[C@H](OC(=O)C2CCC2)C[C@@]2(C)C3CC=C4C(CC(O)C(=O)C4(C)C)[C@]3(C)C(=O)C[C@]12C` (stereo partly drawn) [Compound 3b, (9R,13R,14S,16R)-17-((R,E)-6-Acetoxy-2-hydroxy-6-methyl-3-oxohept-4-en-2-yl)-2-hydroxy-4,4,9,13,14-pentamethyl-3,11-dioxo-2,3,4,7,8,9,10,11,12,13,14,15,16,17-tetradecahydro-1H-cyclopenta[a]phenanthren-16-yl cyclobutanecarboxylate], for which the IC50 in experiment [1] was 520 ± 80 nM; in experiment [2], 540 ± 40 nM.

As for `CC(=O)OC(C)(C)/C=C/C(=O)[C@](C)(O)C1[C@H](OC(=O)CCC(=O)OCC(C)(C)COc2no[n+]([O-])c2S(=O)(=O)c2ccccc2)C[C@@]2(C)C3CC=C4C(CC(O)C(=O)C4(C)C)[C@]3(C)C(=O)C[C@]12C` (stereo partly drawn) [Compound 10n, 4-(3-((4-(((9R,13R,14S,16R)-17-((R,E)-6-Acetoxy-2-hydroxy-6-methyl-3-oxohept-4-en-2-yl)-2-hydroxy-4,4,9,13,14-pentamethyl-3,11-dioxo-2,3,4,7,8,9,10,11,12,13,14,15,16,17-tetradecahydro-1H-cyclopenta[a]phenanthren-16-yl)oxy)-4-oxobutanoyl)oxy)-2,2-dimethylpropoxy)-3-(phenylsulfonyl)-1,2,5-oxadiazole 2-oxide], the IC50 in experiment [1] came out at 3310 ± 180 nM; in experiment [2], 1110 ± 220 nM.

In the case of `CC(=O)OC(C)(C)/C=C/C(=O)[C@](C)(O)C1[C@H](OC(=O)c2cccc(F)c2)C[C@@]2(C)C3CC=C4C(C[C@H](O)C(=O)C4(C)C)[C@]3(C)C(=O)C[C@]12C` (stereo partly drawn) [Compound 3n, (2S,9R,13R,14S,16R)-17-((R,E)-6-Acetoxy-2-hydroxy-6-methyl-3-oxohept-4-en-2-yl)-2-hydroxy-4,4,9,13,14-pentamethyl-3,11-dioxo-2,3,4,7,8,9,10,11,12,13,14,15,16,17-tetradecahydro-1H-cyclopenta[a]phenanthren-16-yl 3-fluorobenzoate], the IC50 in experiment [1] was 2480 ± 520 nM; in experiment [2], 4050 ± 1390 nM.

`CC(=O)OC(C)(C)/C=C/C(=O)[C@](C)(O)C1[C@H](OC(=O)CCCCN(C)C(=O)OC(C)(C)C)C[C@@]2(C)C3CC=C4C(C[C@H](O)C(=O)C4(C)C)[C@]3(C)C(=O)C[C@]12C` (stereo partly drawn) [Compound 3e, (2S,9R,13R,14S,16R)-17-((R,E)-6-Acetoxy-2-hydroxy-6-methyl-3-oxohept-4-en-2-yl)-2-hydroxy-4,4,9,13,14-pentamethyl-3,11-dioxo-2,3,4,7,8,9,10,11,12,13,14,15,16,17-tetradecahydro-1H-cyclopenta[a]phenanthren-16-yl 5-((tert-butoxycarbonyl)(methyl)amino)pentanoate]: the IC50 in experiment [1] is 5500 ± 2480 nM; in experiment [2], 9280 ± 370 nM.

For the compound `CC(=O)OC(C)(C)/C=C/C(=O)[C@](C)(O)C1[C@H](OC(=O)c2ccc(Cl)cc2)C[C@@]2(C)C3CC=C4C(C[C@H](O)C(=O)C4(C)C)[C@]3(C)C(=O)C[C@]12C` (stereo partly drawn) [Compound 3j, (2S,9R,13R,14S,16R)-17-((R,E)-6-Acetoxy-2-hydroxy-6-methyl-3-oxohept-4-en-2-yl)-2-hydroxy-4,4,9,13,14-pentamethyl-3,11-dioxo-2,3,4,7,8,9,10,11,12,13,14,15,16,17-tetradecahydro-1H-cyclopenta[a]phenanthren-16-yl 4-chlorobenzoate], the IC50 was 3570 ± 2580 nM in experiment [1] and 4670 ± 280 nM in experiment [2].

Regarding `CC(=O)OC(C)(C)/C=C/C(=O)[C@](C)(O)C1[C@H](OC(=O)CCC(=O)OCCCCCCCCOc2no[n+]([O-])c2S(=O)(=O)c2ccccc2)C[C@@]2(C)C3CC=C4C(CC(O)C(=O)C4(C)C)[C@]3(C)C(=O)C[C@]12C` (stereo partly drawn) [Compound 10g, 4-((8-((4-(((9R,13R,14S,16R)-17-((R,E)-6-Acetoxy-2-hydroxy-6-methyl-3-oxohept-4-en-2-yl)-2-hydroxy-4,4,9,13,14-pentamethyl-3,11-dioxo-2,3,4,7,8,9,10,11,12,13,14,15,16,17-tetradecahydro-1H-cyclopenta[a]phenanthren-16-yl)oxy)-4-oxobutanoyl)oxy)octyl)oxy)-3-(phenylsulfonyl)-1,2,5-oxadiazole 2-oxide], the IC50 stood at 4290 ± 660 nM in experiment [1] and 1190 ± 550 nM in experiment [2].

In the case of `CC(=O)OC(C)(C)/C=C/C(=O)[C@](C)(O)C1[C@H](OC(=O)CCC(=O)OC/C=C/COc2no[n+]([O-])c2S(=O)(=O)c2ccccc2)C[C@@]2(C)C3CC=C4C(CC(O)C(=O)C4(C)C)[C@]3(C)C(=O)C[C@]12C` (stereo partly drawn) [Compound 10l, 4-(((E)-4-((4-(((9R,13R,14S,16R)-17-((R,E)-6-Acetoxy-2-hydroxy-6-methyl-3-oxohept-4-en-2-yl)-2-hydroxy-4,4,9,13,14-pentamethyl-3,11-dioxo-2,3,4,7,8,9,10,11,12,13,14,15,16,17-tetradecahydro-1H-cyclopenta[a]phenanthren-16-yl)oxy)-4-oxobutanoyl)oxy)but-2-en-1-yl)oxy)-3-(phenylsulfonyl)-1,2,5-oxadiazole 2-oxide], the IC50 in experiment [1] was 2720 ± 380 nM; in experiment [2], 1010 ± 400 nM.
